Experimental data: PubChem BioAssay AID1963446 (Molecular Pharmacology Branch, DTP, NCI, 2024)
pIC50: −log10 of the molar value.

System: 993429-296-R-J1-PDC complex spheroid growth, percent test/control
Assay: Anticancer human tumor 993429-296-R-J1-PDC patient-derived uterine sarcoma cell line growth inhibition [Asc]
Settings: for pIC50: curve of first compound; for viability, T/C: stronger effect = lower value
Outline: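 Stromal components (HUVEC and hMSC) are co-assembled with the cancer cells into multicellular spheroids. Drugs are then added singly or paired, at concentrations falling by half-log increments from a clinically achievable maximum, capped at 10 microM without known Cmax.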

[1] = second compound 0.03 µM, first compound 0.0316 µM
[2] = second compound 0.03 µM, first compound 0.1 µM
[3] = second compound 0.03 µM, first compound 0.316 µM
[4] = second compound 0.03 µM, first compound 1 µM
[5] = second compound 0.03 µM, first compound 3.16 µM
[6] = second compound 0.03 µM, first compound 10 µM
[7] = second compound 0.0949 µM, first compound 0.0316 µM
[8] = second compound 0.0949 µM, first compound 0.1 µM
[9] = second compound 0.0949 µM, first compound 0.316 µM
[10] = second compound 0.0949 µM, first compound 1 µM
[11] = second compound 0.0949 µM, first compound 3.16 µM
[12] = second compound 0.0949 µM, first compound 10 µM
[13] = second compound 0.3 µM, first compound 0.0316 µM
[14] = second compound 0.3 µM, first compound 0.1 µM
[15] = second compound 0.3 µM, first compound 0.316 µM
[16] = second compound 0.3 µM, first compound 1 µM
[17] = second compound 0.3 µM, first compound 3.16 µM
[18] = second compound 0.3 µM, first compound 10 µM
[19] = second compound 0.949 µM, first compound 0.0316 µM
[20] = second compound 0.949 µM, first compound 0.1 µM
[21] = second compound 0.949 µM, first compound 0.316 µM
[22] = second compound 0.949 µM, first compound 1 µM
[23] = second compound 0.949 µM, first compound 3.16 µM
[24] = second compound 0.949 µM, first compound 10 µM
[25] = second compound 3 µM, first compound 0.0316 µM
[26] = second compound 3 µM, first compound 0.1 µM
[27] = second compound 3 µM, first compound 0.316 µM
[28] = second compound 3 µM, first compound 1 µM
[29] = second compound 3 µM, first compound 3.16 µM
[30] = second compound 3 µM, first compound 10 µM
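Note: spheroids exposed to compounds for seven days.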

| SMILES | pIC50 (second compound 0.03 µM) | pIC50 (second compound 0.0949 µM) | pIC50 (second compound 0.3 µM) | pIC50 (second compound 0.949 µM) | pIC50 (second compound 3 µM) | viability, T/C [1] | viability, T/C [2] | viability, T/C [3] | viability, T/C [4] | viability, T/C [7] | viability, T/C [8] | viability, T/C [9] | viability, T/C [10] | viability, T/C [13] | viability, T/C [14] | viability, T/C [15] | viability, T/C [16] | viability, T/C [19] | viability, T/C [20] | viability, T/C [21] | other results |
| --- | --- | --- | --- | --- | --- | --- | --- | --- | --- | --- | --- | --- | --- | --- | --- | --- | --- | --- | --- | --- | --- |
| C#Cc1c(F)ccc2cc(O)cc(-c3ncc4c(N5CC6CCC(C5)N6)nc(OCC56CCCN5CC(F)C6)nc4c3F)c12 (stereo not given) + CCN1C(C(=O)NC23CCC(C(=O)O)(CC2)CC3)C(c2cccc(Cl)c2F)C2(C(=O)Nc3cc(Cl)ccc32)C12CCCCC2 | 5.29 | 5.27 | 5.26 | 5.27 | 5.31 | 93.3% | 96.5% | 106% | 84% | 96.1% | 95.4% | 83.8% | 115% | 87.8% | 95.3% | 90.3% | 117% | 104% | 98.5% | 107% | viability, T/C [5]: 86.3%; viability, T/C [6]: 2.52%; viability, T/C [11]: 86.2%; viability, T/C [12]: 8.51%; viability, T/C [17]: 92.2%; viability, T/C [18]: 5.39%; viability, T/C [22]: 98.5%; viability, T/C [23]: 89.8%; viability, T/C [24]: 1.38%; viability, T/C [25]: 100%; viability, T/C [26]: 96.7%; viability, T/C [27]: 96.6%; viability, T/C [28]: 109%; viability, T/C [29]: 73.5%; viability, T/C [30]: 12.8% |
| C=C(F)C(=O)N1CCN(c2nc(OCC3CCCN3C)nc3c2CCN(c2cccc4cccc(Cl)c24)C3)CC1CC#N (stereo not given) + CCN1C(C(=O)NC23CCC(C(=O)O)(CC2)CC3)C(c2cccc(Cl)c2F)C2(C(=O)Nc3cc(Cl)ccc32)C12CCCCC2 | 5.96 | 5.92 | 6.00 | 5.89 | 5.80 | 97.6% | 95.3% | 103% | 54% | 98.4% | 98.2% | 85.2% | 59.8% | 89.2% | 104% | 105% | 50.5% | 93% | 88.3% | 78.2% | viability, T/C [5]: 7.9%; viability, T/C [6]: 0.1%; viability, T/C [11]: 8.82%; viability, T/C [12]: 0.11%; viability, T/C [17]: 10.4%; viability, T/C [18]: 0.1%; viability, T/C [22]: 63.9%; viability, T/C [23]: 5.95%; viability, T/C [24]: 0.11%; viability, T/C [25]: 107%; viability, T/C [26]: 86.2%; viability, T/C [27]: 81.7%; viability, T/C [28]: 78.1%; viability, T/C [29]: 7.46%; viability, T/C [30]: 0.15% |
| C=CC(=O)N1CCN(c2nc(=O)n(-c3c(C)ccnc3C(C)C)c3nc(-c4c(O)cccc4F)c(F)cc23)C(C)C1 (stereo not given) + CCN1C(C(=O)NC23CCC(C(=O)O)(CC2)CC3)C(c2cccc(Cl)c2F)C2(C(=O)Nc3cc(Cl)ccc32)C12CCCCC2 | < 5.00 | < 5.00 | < 5.00 | < 5.00 | < 5.00 | 96.1% | 101% | 108% | 86.2% | 102% | 106% | 103% | 106% | 88.8% | 102% | 102% | 106% | 102% | 91.2% | 128% | viability, T/C [5]: 114%; viability, T/C [6]: 76.1%; viability, T/C [11]: 96.5%; viability, T/C [12]: 70.5%; viability, T/C [17]: 107%; viability, T/C [18]: 85.7%; viability, T/C [22]: 100%; viability, T/C [23]: 94.9%; viability, T/C [24]: 78.3%; viability, T/C [25]: 100%; viability, T/C [26]: 87.6%; viability, T/C [27]: 97.9%; viability, T/C [28]: 96.3%; viability, T/C [29]: 90.4%; viability, T/C [30]: 77.9% |
| CNC(C)C(=O)NC1CN(S(=O)(=O)c2cccc(S(=O)(=O)N3CCC4CCC(C(=O)NC(c5ccccc5)c5ccccc5)N4C(=O)C(NC(=O)C(C)NC)C3)c2)CCC2CCC(C(=O)NC(c3ccccc3)c3ccccc3)N2C1=O (stereo not given) + CCN1C(C(=O)NC23CCC(C(=O)O)(CC2)CC3)C(c2cccc(Cl)c2F)C2(C(=O)Nc3cc(Cl)ccc32)C12CCCCC2 | < 6.00 | < 6.00 | < 6.00 | < 6.00 | 6.54 | 57.5% | 57% | 58% | 51.7% | 65% | 68.7% | 53.7% | 57.3% | 66.3% | 53.9% | 62.6% | 59.4% | 62.7% | 65.2% | 55.9% | viability, T/C (second compound 0.03 µM, first compound 0.00316 µM): 71.4%; viability, T/C (second compound 0.03 µM, first compound 0.01 µM): 62.7%; viability, T/C (second compound 0.0949 µM, first compound 0.00316 µM): 61.2%; viability, T/C (second compound 0.0949 µM, first compound 0.01 µM): 69.8%; viability, T/C (second compound 0.3 µM, first compound 0.00316 µM): 64.9%; viability, T/C (second compound 0.3 µM, first compound 0.01 µM): 79.5%; viability, T/C (second compound 0.949 µM, first compound 0.00316 µM): 77.3%; viability, T/C (second compound 0.949 µM, first compound 0.01 µM): 64.3%; viability, T/C [22]: 61.1%; viability, T/C (second compound 3 µM, first compound 0.00316 µM): 77.9%; viability, T/C (second compound 3 µM, first compound 0.01 µM): 66.8%; viability, T/C [25]: 59.2%; viability, T/C [26]: 48.3%; viability, T/C [27]: 53.5%; viability, T/C [28]: 47.7% |
